Measured values: PMC8370248, “Key Metabolic Enzymes Involved in Remdesivir Activation in Human Lung Cells” (Antimicrobial Agents and Chemotherapy, 2021)
“And” between values parts separate entries of the source, which are not always exact repeats. Equal entries are not always repeated.

Assays:
CES1b = target: T1, CES1b (Homo sapiens, UniProt P23141); test: CES1b-catalyzed hydrolysis of RDV and control (substrate disappearance, LC-MS); type: in vitro ADME
T1 construct: purchased Corning Incorporated (Corning, NY); host or cells: baculovirus-infected insect cells (microsomal fraction, Supersomes)
T1 sequence (P23141 18-567): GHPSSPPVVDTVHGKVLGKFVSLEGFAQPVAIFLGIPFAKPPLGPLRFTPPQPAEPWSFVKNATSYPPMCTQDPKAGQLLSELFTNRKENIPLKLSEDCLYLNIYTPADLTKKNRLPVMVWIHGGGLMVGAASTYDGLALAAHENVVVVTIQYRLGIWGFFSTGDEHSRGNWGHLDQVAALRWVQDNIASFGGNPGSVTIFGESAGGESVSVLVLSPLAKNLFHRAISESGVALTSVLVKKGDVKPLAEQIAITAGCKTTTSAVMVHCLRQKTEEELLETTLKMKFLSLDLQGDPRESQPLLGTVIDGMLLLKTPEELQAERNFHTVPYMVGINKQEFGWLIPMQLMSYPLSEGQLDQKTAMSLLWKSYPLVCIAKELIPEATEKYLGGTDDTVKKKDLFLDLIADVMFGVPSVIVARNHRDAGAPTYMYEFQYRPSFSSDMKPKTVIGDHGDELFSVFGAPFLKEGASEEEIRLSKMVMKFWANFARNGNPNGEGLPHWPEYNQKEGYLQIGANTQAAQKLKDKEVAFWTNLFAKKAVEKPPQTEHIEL
Description: The catalytic activity of carboxylesterase 1b (CES1b), carboxylesterase 1c (CES1c), CES2, and CatA toward RDV hydrolysis was measured using protein-enriched subcellular fraction (CES isozymes) or recombinant proteins (CatA). The reaction rates were determined by monitoring the disappearance of RDV using a liquid chromatography-mass spectrometry (LC-MS) method.
RDV or positive-control substrates (oseltamivir for CES1 or procaine for CES2) were incubated with individual Supersome preparations (final CES concentration, 1.5 mg/ml) in 0.1 M potassium phosphate buffer (pH 7.4) at 37°C. Substrates were added to a final concentration of 1 μM to initiate the reaction. The final incubation volume was 250 μl. Aliquots were removed after incubation for 0, 10, 30, 60, and 120 min. The reactions were stopped by the addition of the quench solution containing the LC-MS internal standard (IS) (labetalol). Following protein precipitation and centrifugation, 150 μl of supernatant was dried down and reconstituted with 250 μl water. All samples were analyzed by an LC-MS, and the analyte/internal standard peak area ratio (PAR) values were used for quantification. Disappearance of RDV or positive-control compounds was monitored over the incubation time period. Three experiments were conducted with two replicates in each experiment, and data are reported as averages from the three experiments.
In all studies apart from those with CES1 and CatA with enzyme inhibitors, samples (10-μl aliquots) were injected with a Thermo Scientific autosampler. The LC instrumentation consisted of a Thermo Scientific Dionex UltiMate 3000 RS pump, and the LC column was a Waters Acquity UPLC BEH C18 (1.7 μm particle size, 2.1 by 50 mm). Mobile phases A and B were water 99.9% (vol/vol) containing 0.1% (vol/vol) formic acid, and acetonitrile 99.9% (vol/vol) containing 0.1% (vol/vol) formic acid, respectively, pumped at 0.2 ml/minute. Elution was achieved by a series of linear gradients over 2.33 min followed by reequilibration for 2.57 min. The MS instrument was a Thermo Q Exactive Hybrid Quadrupole-Orbitrap operating in positive or negative ionization mode as appropriate. This was calibrated on a weekly basis, and data were processed with GMSU 8.4.66 software by Gubbs Inc. (Alpharetta, GA). Mass tolerance of 5 ppm was used.

SARS-CoV-2 = test: microbe, parasite or virus in culture; type: cell-based

SMILES: CCC(CC)COC(=O)[C@H](C)N[P@](=O)(OC[C@H]1O[C@@](C#N)(c2ccc3c(N)ncnn23)[C@H](O)[C@@H]1O)Oc1ccccc1 [RDV, Remdesivir]
- half-life at 1 μM (CES1b; human, CES1b Supersomes (protein-enriched subcellular fraction), 1 μM substrate, CES 1.5 mg/ml, pH 7.4, 37°C, read-out: t1/2, CES1b (converted)): 9.7 min
- CES1b hydrolysis rate relative to oseltamivir (CES1b; times faster than positive control oseltamivir): 2 times
- Fold-RDV EC50, RDV + 0.5 μM telaprevir (SARS-CoV-2; EC50 of combination divided by EC50 of RDV (plus DMSO), 0.5 μM telaprevir): 1.70 ± 0.19
- Fold-RDV EC50, RDV + 2.5 μM telaprevir (SARS-CoV-2; EC50 of combination divided by EC50 of RDV (plus DMSO), 2.5 μM telaprevir): 2.27 ± 0.25
- Fold-RDV EC50, RDV + 10 μM telaprevir (SARS-CoV-2; EC50 of combination divided by EC50 of RDV (plus DMSO), 10 μM telaprevir): 2.9 and 2.91 ± 0.65
- EC50 (SARS-CoV-2; Severe acute respiratory syndrome coronavirus 2, 48 h, compound alone (plus DMSO), A549-hACE2 cells, 48 h): ~99 nM
